# Read-outs that look alike come from different tables or passages of the source.
# How the values were obtained:
# [1] = biological target: HCV NS3/4A protease complex, BMS strain (UniProt P27958, C1454S/C1711G, species not given/STRAIN_BMS); test: Recombinant HCV NS3/4A protease complex FRET peptide assay (BMS strain); type: biochemical, HCV genotype 1a
# Outline: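 Recombinant BMS-strain NS3/4A (His-tagged NS4A with three-lysine tail, E. coli) at 2-3 nM preincubated 1 min with compound, then 2 μM ester-linked NS4A/NS4B-based FRET peptide added. Fluorescence followed in real time ~15 min at 25° C. Percent inhibition from slope of linear fluorescence change versus no-compound control.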
# [2] = system: HCV replicon in Huh7 cells; test: HCV replicon cell-based assay; parameters: species or system HCV strain 1B; settings: Hepatitis C virus, Huh-7; HCV replicon, Huh7 cells; read-out: EC50 range
# [3] = NS3/4A BMS strain; read-out: IC50 range
# [4] = read-out: IC50 range; NS3/4A BMS strain
Structure (SMILES),"IC50 [1, 3] [nM]",EC50 [2] [nM],"IC50 [1, 4] [nM]"
C=C[C@@H]1C[C@]1(NC(=O)[C@@H]1C[C@@H](Oc2nc(-c3ncc(OC)o3)cc3cc(OC)ccc23)CN1C(=O)[C@@H](NC(=O)OC(C)(C)C)C(C)(C)C)C(=O)NS(=O)(=O)C1CC1 [Compound 39],< 100,< 100,–
C=C[C@@H]1C[C@]1(NC(=O)[C@@H]1C[C@@H](Oc2nc(Cl)cc3cc(OC)ccc23)CN1C(=O)[C@@H](NC(=O)OC(C)(C)C)C(C)(C)C)C(=O)NS(=O)(=O)C1CC1 [Compound 40],< 100,100 to 1000,–
C=C[C@@H]1C[C@]1(NC(=O)[C@@H]1C[C@@H](Oc2nc(-c3ccoc3)cc3cc(OC)ccc23)CN1C(=O)[C@@H](NC(=O)OC(C)(C)C)C(C)(C)C)C(=O)NS(=O)(=O)C1CC1 [Compound 41],< 100,< 100,–
C=C[C@@H]1C[C@]1(NC(=O)[C@@H]1C[C@@H](Oc2nccc3cc(OCC)ccc23)CN1C(=O)[C@@H](NC(=O)OC(C)(C)C)C(C)(C)C)C(=O)NS(=O)(=O)C1CC1 [Compound 42],< 100,< 100,–
C=C[C@@H]1C[C@]1(NC(=O)C1CC(Oc2nc(-c3ccccc3)nc3ccccc23)CN1C(=O)[C@@H](NC(=O)OC(C)(C)C)C(C)(C)C)C(=O)NS(=O)(=O)C1CC1 (stereo partly drawn) [Compound 47],< 100,100 to 1000,–
C=C[C@@H]1C[C@]1(NC(=O)C1C[C@@H](Oc2nc(-c3ccccc3)nc3ccc(OC)cc23)CN1C(=O)[C@@H](N)C(C)(C)C)C(=O)NS(=O)(=O)C1CC1 (stereo partly drawn) [Compound 50],100 to 1000,1000 to 10000,–
C=C[C@@H]1C[C@]1(NC(=O)[C@@H]1C[C@@H](Nc2nc(-c3ccccc3)cs2)CN1C(=O)[C@@H](NC(=O)OC(C)(C)C)C(C)(C)C)C(=O)NS(=O)(=O)C1CC1 [Compound 53],100 to 1000,1000 to 10000,–
C=C[C@@H]1C[C@]1(NC(=O)[C@@H]1CC(Oc2nccc3cc(OC)ccc23)CN1C(=O)[C@@H](NC(=O)C1CCCC1)C(C)(C)C)C(=O)NS(=O)(=O)C1CC1 (stereo partly drawn) [Compound 56],< 100,< 100,–
C=C[C@@H]1C[C@]1(NC(=O)[C@@H]1CC(Oc2nccc3cc(OC)ccc23)CN1C(=O)[C@@H](NC(=O)C(CC)CC)C(C)(C)C)C(=O)NS(=O)(=O)C1CC1 (stereo partly drawn) [Compound 57],< 100,100 to 1000,–
C=C[C@@H]1CC1(NC(=O)[C@@H]1CC(Oc2nccc3cc(OC)ccc23)CN1C(=O)[C@@H](NC(=O)CC1CC1)C(C)(C)C)C(=O)NS(=O)(=O)C1CC1 (stereo partly drawn) [Compound 58],–,< 100,< 100
C=C[C@@H]1C[C@]1(NC(=O)[C@@H]1CC(Oc2nccc3cc(OC)ccc23)CN1C(=O)[C@@H](NC(=O)COC)C(C)(C)C)C(=O)NS(=O)(=O)C1CC1 (stereo partly drawn) [Compound 59],< 100,100 to 1000,–
C=C[C@@H]1CC1(NC(=O)[C@@H]1CC(Oc2nccc3cc(OC)ccc23)CN1C(=O)[C@@H](NC(=O)CO[C@H]1C[C@@H](C)CC[C@@H]1C(C)C)C(C)(C)C)C(=O)NS(=O)(=O)C1CC1 (stereo partly drawn) [Compound 60],< 100,1000 to 10000,–
C=C[C@@H]1CC1(NC(=O)[C@@H]1CC(Oc2nccc3cc(OC)ccc23)CN1C(=O)[C@@H](NC(=O)CO[C@@H]1C[C@H](C)CC[C@H]1C(C)C)C(C)(C)C)C(=O)NS(=O)(=O)C1CC1 (stereo partly drawn) [Compound 61],100 to 1000,1000 to 10000,–
C=C[C@@H]1C[C@]1(NC(=O)[C@@H]1CC(Oc2nccc3cc(OC)ccc23)CN1C(=O)[C@@H](NC(=O)C1C2CC1C2)C(C)(C)C)C(=O)NS(=O)(=O)C1CC1 (stereo partly drawn) [Compound 62],< 100,< 100,–
C=C[C@@H]1C[C@]1(NC(=O)[C@@H]1CC(Oc2nccc3cc(OC)ccc23)CN1C(=O)[C@@H](NC(=O)c1cnccn1)C(C)(C)C)C(=O)NS(=O)(=O)C1CC1 (stereo partly drawn) [Compound 63],< 100,1000 to 10000,–
C=C[C@@H]1CC1(NC(=O)[C@@H]1CC(Oc2nccc3cc(OC)ccc23)CN1C(=O)[C@@H](NC(=O)OCc1ccccc1)C(C)(C)C)C(=O)NS(=O)(=O)C1CC1 (stereo partly drawn) [Compound 64],–,< 100,< 100
C=C[C@@H]1CC1(NC(=O)[C@@H]1CC(Oc2nccc3cc(OC)ccc23)CN1C(=O)[C@@H](NC(=O)O[C@H]1C[C@@H](C)CC[C@@H]1C(C)C)C(C)(C)C)C(=O)NS(=O)(=O)C1CC1 (stereo partly drawn) [Compound 65],< 100,100 to 1000,–
C=C[C@@H]1CC1(NC(=O)[C@@H]1CC(Oc2nccc3cc(OC)ccc23)CN1C(=O)[C@@H](NC(=O)O[C@@H]1C[C@H](C)CC[C@H]1C(C)C)C(C)(C)C)C(=O)NS(=O)(=O)C1CC1 (stereo partly drawn) [Compound 66],< 100,100 to 1000,–
C=C[C@@H]1C[C@]1(NC(=O)[C@@H]1CC(Oc2nccc3cc(OC)ccc23)CN1C(=O)[C@@H](NC(=O)OC(C)(C)CC)C(C)(C)C)C(=O)NS(=O)(=O)C1CC1 (stereo partly drawn) [Compound 67],< 100,< 100,–
C=C[C@@H]1C[C@]1(NC(=O)[C@@H]1CC(Oc2nccc3cc(OC)ccc23)CN1C(=O)[C@@H](NC(=O)OC(C)(C)C(Cl)(Cl)Cl)C(C)(C)C)C(=O)NS(=O)(=O)C1CC1 (stereo partly drawn) [Compound 68],< 100,< 100,–

Structure (SMILES),"IC50 [1, 3] [nM]",EC50 [2] [nM],"IC50 [1, 4] [nM]"
C=C[C@@H]1CC1(NC(=O)[C@@H]1CC(Oc2nccc3cc(OC)ccc23)CN1C(=O)[C@@H](NC(=O)OC1(C)CCCC1)C(C)(C)C)C(=O)NS(=O)(=O)C1CC1 (stereo partly drawn) [Compound 69],–,< 100,< 100
C=C[C@@H]1CC1(NC(=O)[C@@H]1CC(Oc2nccc3cc(OC)ccc23)CN1C(=O)[C@@H](NC(=O)OC1CCCC1)C(C)(C)C)C(=O)NS(=O)(=O)C1CC1 (stereo partly drawn) [Compound 70],< 100,< 100,–
C=C[C@@H]1C[C@]1(NC(=O)[C@@H]1CC(Oc2nccc3cc(OC)ccc23)CN1C(=O)[C@@H](NC(=O)OC1CCC1)C(C)(C)C)C(=O)NS(=O)(=O)C1CC1 (stereo partly drawn) [Compound 71],< 100,< 100,–
C=C[C@@H]1C[C@]1(NC(=O)[C@@H]1CC(Oc2nccc3cc(OC)ccc23)CN1C(=O)[C@@H](NC(=O)OC(C)(C)c1ccccc1)C(C)(C)C)C(=O)NS(=O)(=O)C1CC1 (stereo partly drawn) [Compound 72],< 100,100 to 1000,–
C=C[C@@H]1C[C@]1(NC(=O)[C@@H]1CC(Oc2nccc3cc(OC)ccc23)CN1C(=O)[C@@H](NC(=O)OC(C)(C)c1ccc(C(F)(F)F)cc1)C(C)(C)C)C(=O)NS(=O)(=O)C1CC1 (stereo partly drawn) [Compound 73],< 100,100 to 1000,–
C=C[C@@H]1CC1(NC(=O)[C@@H]1CC(Oc2nccc3cc(OC)ccc23)CN1C(=O)[C@@H](NC(=O)NC1CCCC1)C(C)(C)C)C(=O)NS(=O)(=O)C1CC1 (stereo partly drawn) [Compound 75],< 100,< 100,–
C=C[C@@H]1CC1(NC(=O)[C@@H]1CC(Oc2nccc3cc(OC)ccc23)CN1C(=O)[C@@H](NC(=O)NC(C)(C)CC)C(C)(C)C)C(=O)NS(=O)(=O)C1CC1 (stereo partly drawn) [Compound 76],–,< 100,< 100
C=C[C@@H]1C[C@]1(NC(=O)[C@@H]1CC(Oc2nccc3cc(OC)ccc23)CN1C(=O)[C@@H](NC(=O)N(C)C(C)(C)C)C(C)(C)C)C(=O)NS(=O)(=O)C1CC1 (stereo partly drawn) [Compound 77],< 100,100 to 1000,–
C=C[C@@H]1C[C@]1(NC(=O)[C@@H]1CC(Oc2nccc3cc(OC)ccc23)CN1C(=O)[C@@H](NC(=O)N(C)OC)C(C)(C)C)C(=O)NS(=O)(=O)C1CC1 (stereo partly drawn) [Compound 78],< 100,1000 to 10000,–
C=C[C@@H]1C[C@]1(NC(=O)[C@@H]1CC(Oc2nccc3cc(OC)ccc23)CN1C(=O)[C@@H](NC(=O)N(CC)CC)C(C)(C)C)C(=O)NS(=O)(=O)C1CC1 (stereo partly drawn) [Compound 79],< 100,100 to 1000,–
C=C[C@@H]1C[C@]1(NC(=O)[C@@H]1CC(Oc2nccc3cc(OC)ccc23)CN1C(=O)[C@@H](NC(N)=O)C(C)(C)C)C(=O)NS(=O)(=O)C1CC1 (stereo partly drawn) [Compound 80],< 100,1000 to 10000,–
C=C[C@@H]1C[C@]1(NC(=O)[C@@H]1CC(Oc2nccc3cc(OC)ccc23)CN1C(=O)[C@@H](NC(=O)NC(C)(C)CC(C)(C)C)C(C)(C)C)C(=O)NS(=O)(=O)C1CC1 (stereo partly drawn) [Compound 81],< 100,100 to 1000,–
C=C[C@@H]1C[C@]1(NC(=O)[C@@H]1CC(Oc2nccc3cc(OC)ccc23)CN1C(=O)[C@@H](NC(=O)NC(C)(C)Cc1ccc(F)cc1)C(C)(C)C)C(=O)NS(=O)(=O)C1CC1 (stereo partly drawn) [Compound 82],< 100,100 to 1000,–
C=C[C@@H]1C[C@]1(NC(=O)[C@@H]1CC(Oc2nccc3cc(OC)ccc23)CN1C(=O)[C@@H](NC(=O)NC(C)(C)c1ccccc1)C(C)(C)C)C(=O)NS(=O)(=O)C1CC1 (stereo partly drawn) [Compound 83],< 100,100 to 1000,–
C=C[C@@H]1C[C@]1(NC(=O)[C@@H]1CC(Oc2nccc3cc(OC)ccc23)CN1C(=O)C([C@@H](C)CC)N(C)C(=O)OC(C)(C)C)C(=O)NS(=O)(=O)C1CC1 (stereo partly drawn) [Compound 84],< 100,100 to 1000,–
C=C[C@@H]1C[C@]1(NC(=O)[C@@H]1CC(Oc2nccc3cc(OC)ccc23)CN1C(=O)[C@H](C(C)C)N(C)C(=O)OC(C)(C)C)C(=O)NS(=O)(=O)C1CC1 (stereo partly drawn) [Compound 85],100 to 1000,1000 to 10000,–
C=C[C@@H]1C[C@]1(NC(=O)[C@@H]1CC(Oc2nccc3cc(OC)ccc23)CN1C(=O)[C@H](CC(C)C)N(C)C(=O)OC(C)(C)C)C(=O)NS(=O)(=O)C1CC1 (stereo partly drawn) [Compound 86],1000 to 10000,10000 to 100000,–
C=C[C@@H]1C[C@]1(NC(=O)[C@@H]1CC(Oc2nccc3cc(OC)ccc23)CN1C(=O)[C@H](CCCC)N(C)C(=O)OC(C)(C)C)C(=O)NS(=O)(=O)C1CC1 (stereo partly drawn) [Compound 87],1000 to 10000,10000 to 100000,–
C=C[C@@H]1C[C@]1(NC(=O)[C@@H]1CC(Oc2nccc3cc(OC)ccc23)CN1C(=O)[C@H](CCC)N(C)C(=O)OC(C)(C)C)C(=O)NS(=O)(=O)C1CC1 (stereo partly drawn) [Compound 88],1000 to 10000,10000 to 100000,–
